Reference: patent publication US20250235418A1, “Butyrate Analogues and Methods of Use for HIF Stabilization and Treatment of Bowel Disease” (THE REGENTS OF THE UNIVERSITY OF COLORADO, A BODY CORPORATE, priority 2022, published 2025)

What was measured:
[1] = system: PHD (2-OG accumulation) in T84 IECs; assay: 2-OG levels in T84 cells as biomarker of PHD inhibition; type: cell-based; conditions: 3 h
Experimental: (B) 2-OG concentrations in T84 cells treated with 10 mM butyrate with or without 1 mM MCPA or 30 μM IOX2 for 3 h
The relationship between butyrate and HIF, were examined whether butyrate influences PHD activity by monitoring 2-OG levels. […] In this, we considered such 2-OG accumulation as a metabolic biomarker of PHD inhibition (FIG. 3A).

[2] = biological target: T1, PHD2181-402 (Homo sapiens, UniProt Q9GZT9); assay: microscale thermophoresis (MST) binding to PHD2181-402
T1 construct: made in house
T1 sequence (Q9GZT9 181-402): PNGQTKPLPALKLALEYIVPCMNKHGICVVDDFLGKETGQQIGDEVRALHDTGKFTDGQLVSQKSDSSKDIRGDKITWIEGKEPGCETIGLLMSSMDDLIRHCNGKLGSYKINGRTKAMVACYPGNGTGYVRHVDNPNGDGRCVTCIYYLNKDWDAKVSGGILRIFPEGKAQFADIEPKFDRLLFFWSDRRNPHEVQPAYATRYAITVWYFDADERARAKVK
Source text: (§1) Measurements were repeated 3 times.
Uncompetitive inhibitors only bind to the enzyme substrate complex, whereas noncompetitive inhibitors can bind to enzyme alone or enzyme substrate complex since the inhibitor has a unique binding site distinct from the substrate binding site. […] Thus, our findings indicate that butyrate functions as a noncompetitive PHD inhibitor with a unique binding site.

[3] = biological target: T1, PHD2181-402; assay: bioluminescent succinate detection assay of recombinant PHD2181-402 activity/inhibition; type: biochemical
Source text: To pinpoint if butyrate inhibits PHDs directly, we expressed recombinant PHD derived from the human PHD2 sequence. There are three human PHDs: PHD1, PHD2, and PHD3, with PHD2 being the most abundant and expressed in the majority of tissues, the most important regulator of HIF, particularly HIF-1α, and the only PHD that is embryonically lethal when deleted. PHD1 is exclusively localized to the nucleus, whereas PHD2 is mainly cytoplasmic, and PHD3 is both. […] Sequence comparisons and modeling studies indicate that the PHD2 active site is highly conserved among the PHDs.
IC50s depend on exact experimental conditions, making direct comparisons and global applications difficult.

[4] = system: c2bbe cells; assay: epithelial barrier formation by transepithelial electrical resistance (TEER); type: cell-based; conditions: 5 mM
Experimental: Barrier development in Caco-2 cells treated with Veh, BA or […] (5 mM); n=6. Data analyzed by Two-way ANOVA with Dunnett for post hoc correction and presented as mean±S.E.M, *p<0.05 **p<0.01, ***p<0.001, #BA, *MBA compared to veh in two independent experiments.
TEER of C2bbe cells exposed to 5 mM butyrate derivatives.
Therefore, we decided to study the effect of various butyrate derivatives in barrier function; in fact, sodium butyrate is an established pro-barrier factor. We studied epithelial barrier integrity through measurement of transepithelial electrical resistance (TEER), a typical assay for the quantitation of epithelial barrier strength. IEC c2bbe were exposed to butyrate derivatives (all at 5 mM) and TEERS were measured daily.

[5] = system: HIF-1α in T84 cells; assay: HIF stabilization by butyrate in T84 cells (HIF-1α target mRNA, HIF-1α protein); type: cell-based; conditions: 4 h
Experimental: (C) Quantified densitometry of HIF-1α protein expression in T84 cells treated with 10 mM butyrate with or without 1 mM MCPA for 4 h

[6] = system: HIF target genes in T84 cells; assay: real-time PCR of HIF target genes BNIP3 and CAIX in T84 cells; type: cell-based; conditions: 16h
Experimental: (A) Exposure of T84 cells to Veh, BA or MBA (5 mM, 16 h) induced HIF target gene expression of CAIX and BNIP3. […] (C) Non-targeting control and T84 HIF1b depleted cells were analyzed for HIF1b expression by western blotting, shown with a representative blot. Quantification of HIF1b decrease was performed using ACTB-normalized densitometry. qPCR data was analyzed by One-way ANOVA with Bonferroni for post hoc correction and presented as mean±S.E.M, **p<0.01, ***p<0.001, ****p<0.0001 of three independent experiments.
Following these findings, we then explored if the MBA-induced stabilization of HIF was reflected in the transcriptional regulation of target genes. We utilized real-time PCR to study the influence of MBA mediated HIF stabilization in the induction of established HIF targets, BNIP3 (cell survival) and CAIX (pH regulation).
Furthermore, to confirm MBA-induced HIF transcriptional activity, we quantified the induction of BNIP3 and CAIX by BA or MBA (5 mM, 16h) in lentiviral shRNA-mediated knockdown of HIF1β relative to non-targeting shRNA controls. […] These findings confirm that through MBA exposure, HIF is stabilized and it is transcriptionally active.

[7] = biological target: T1, PHD2181-402; assay: WaterLOGSY 1D NMR binding to PHD2181-402; conditions: for binding to PHD2181-402 by WaterLOGSY: 10 mM SCFA, 25 μM PHD2181-402
Source text: Protons attached to C4 were selectively inverted and acted as source of magnetization transfer. […] (G) Protons attached to C2 were selectively inverted.
as §1
This method enables sensitive and robust detection of binding (dissociation constants as weak as μM to low mM) based on the magnetization transfer between water molecules, proteins, and ligands of interest in close proximity via dipolar proton-proton cross-relaxation (nuclear Overhauser effect, NOE). […] Binding and non-binding ligands can be distinguished in a WaterLOGSY spectrum via their opposite signs in relation to water for their corresponding peaks.
This technique allows for mapping of the ligand pharmacophore by monitoring the response of individual protons to an increase of ROEs contribution to the overall cross relaxation rate.

SMILES: CCCC(=O)O [Butyrate, Butyric acid]
- 2-OG levels in the presence of MCPA ([1]; 10 mM butyrate with 1 mM MCPA): significantly increased
- 2-OG levels compared to control ([1]; 10 mM butyrate, 30 μM IOX2): significantly increased
- Kd ([2]; 25 nM PHD2181-402, without 2-OG, read-out: dissociation constant (KD)): 2 ± 3 mM
- binding to PHD2181-402 in the presence of 2-OG by MST ([2]; with 500 nM 2-OG): no butyrate binding
- mode of PHD inhibition [3]: noncompetitive
- IC50 ([3]; 1 μM PHD2181-402, 10 μM 2-OG, 10-minute reaction, n=5-12, error: SEM, read-out: true half maximal inhibitory concentration (IC50) for PHD2181-402): 5.3 mM
- Ki ([3]; IC50 to Ki conversion equation of Cer et al., read-out: noncompetitive Ki for PHD2181-402): 5.3 mM
- barrier integrity over the course of the experiment [4]: lose the integrity of their barrier
- HIF stabilization in the presence of MCPA ([5]; 10 mM butyrate with 1 mM MCPA): still stabilized HIF
- HIF-1α protein levels ([5]; 10 mM): increased
- HIF-1α target genes BNIP3, BNIP3L, GLUT1 mRNA ([5]; 10 mM): induction of HIF-1α target genes
- induction of HIF target genes BNIP3 and CAIX ([6]; T84, 5 mM): significant induction
- induction of BNIP3 and CAIX in cells lacking HIF1β ([6]; T84 HIF1β shRNA knockdown, 5 mM): complete loss of induction
- binding to PHD2181-402 by WaterLOGSY ([7]; listed as Butyric acid): indicating binding
- binding to PHD2181-402 by WaterLOGSY ([7]; listed as butyrate): indicative of binding
- binding to the 2-OG and PHD2181-402 complex by WaterLOGSY ([7]; 10 mM butyrate, 25 μM PHD2181-402, with 150 μM 2-OG): could not bind
